Measurements as given in PubChem BioAssay (NCI).
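Dose response: 5 concentrations. Exposure: 48 h. Format: 96-well plates. Endpoint: linear interpolation; highest concentration if not reached. TGI: concentration producing complete growth inhibition.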

Columns and labels:
Assay in all cases: NCI-60 cell line screen, 48 h
HCT-116 colon = system: HCT-116 colon
NCI/ADR-RES ovarian = system: NCI/ADR-RES ovarian
MCF7 breast = system: MCF7 breast
DU-145 prostate = system: DU-145 prostate
HL-60(TB) leukemia = system: HL-60(TB) leukemia
OVCAR-8 ovarian = system: OVCAR-8 ovarian
LOX IMVI melanoma = system: LOX IMVI melanoma
MDA-MB-435 = system: MDA-MB-435
MALME-3M melanoma = system: MALME-3M melanoma
SF-268 CNS = system: SF-268 CNS
NCI-H460 lung = system: NCI-H460 lung
NCI-H522 lung = system: NCI-H522 lung
HT29 colon = system: HT29 colon
786-0 renal = system: 786-0 renal
CCRF-CEM leukemia = system: CCRF-CEM leukemia
KM12 colon = system: KM12 colon
NCI-H23 lung = system: NCI-H23 lung
SK-MEL-2 melanoma = system: SK-MEL-2 melanoma
HOP-92 NSCLC = system: HOP-92 NSCLC
OVCAR-4 ovarian = system: OVCAR-4 ovarian

Row | Structure (SMILES) | TGI (HCT-116 colon) [µM] | TGI (NCI/ADR-RES ovarian) [µM] | TGI (MCF7 breast) [µM] | TGI (DU-145 prostate) [µM] | TGI (HL-60(TB) leukemia) [µM] | TGI (OVCAR-8 ovarian) [µM] | TGI (LOX IMVI melanoma) [µM] | TGI (MDA-MB-435) [µM] | TGI (MALME-3M melanoma) [µM] | TGI (SF-268 CNS) [µM] | TGI (NCI-H460 lung) [µM] | TGI (NCI-H522 lung) [µM] | TGI (HT29 colon) [µM] | TGI (786-0 renal) [µM] | TGI (CCRF-CEM leukemia) [µM] | TGI (KM12 colon) [µM] | TGI (NCI-H23 lung) [µM] | TGI (SK-MEL-2 melanoma) [µM] | TGI (HOP-92 NSCLC) [µM] | TGI (OVCAR-4 ovarian) [µM]
1 | CCOC(=O)c1ccc(Nc2nc3cc(C(F)(F)F)ccc3nc2-c2ccccc2)cc1 | > 100 | > 100 | > 100 | > 100 | > 100 | > 100 | > 100 | > 100 | > 100 | > 100 | > 100 | > 100 | > 10 | 44.8 | > 100 | > 100 | > 100 |  |  | 
2 | COc1cc(OC)cc(Oc2nc3ccccc3nc2C(=O)O)c1 | > 100 | > 100 |  | > 100 | > 100 | > 100 | > 100 | > 100 | > 100 | > 100 | > 100 | > 100 | > 100 | > 100 | > 100 | > 100 | > 100 | > 100 | > 100 | > 100
3 | O=C(O)CN1CCNCCN(CP(=O)(O)O)CC1 | > 27.5 |  | > 100 | > 100 | 8.41 | > 22.9 | > 100 | > 100 | > 100 | > 100 | > 100 | > 26.8 |  | > 29.2 | > 100 | > 100 | > 100 | > 100 | > 100 | > 100
4 | CC(C)/C(Cl)=N\OC(=O)Nc1cccc(F)c1 | 30.6 | 37 | 32.8 | 32.5 | 4.05 | 31.1 | 5.31 |  | 14.4 | 58 | > 66.8 | 2.98 | 43.6 | 29.6 | 5.07 | 16.7 | 34.2 | 18.9 | 4.69 | 25.4
5 | Cc1ccc(/C(O)=C/c2nc3ccccc3oc2=O)cc1 | > 100 | > 100 | > 100 | > 100 |  | > 100 |  | 83.4 | > 100 | > 100 | > 100 | 90.1 | > 100 | > 100 | > 100 | > 100 | > 100 | > 100 |  | > 100
6 | CCOC(=O)c1cc2c(ccc3cc(C(=O)OCC)[nH]c32)[nH]1 | > 100 |  | > 100 | > 100 |  |  | > 100 | > 100 | > 100 | > 100 | > 100 | > 100 |  | 31.3 | > 100 | > 100 | > 100 | > 100 | > 100 | 32.4
7 | O=C(Nc1cc(C(=O)Nc2cccc(S(=O)(=O)O)c2)cc(C(=O)Nc2cccc(S(=O)(=O)O)c2)c1)c1cccc(C(=O)Nc2cc(C(=O)Nc3cccc(S(=O)(=O)O)c3)cc(C(=O)Nc3cccc(S(=O)(=O)O)c3)c2)c1 | > 100 | > 100 | > 100 | > 100 | 65.5 | > 100 | > 100 | > 100 | > 100 | > 100 | > 100 | > 100 | > 100 | > 100 | > 100 | > 100 | > 100 | > 100 |  | > 100
8 | CC(=N/NC(=S)N1CCCCC1)/C(=N\NC(=S)N1CCCCC1)c1ccccc1 | 5.83 | 6.43 | > 22.7 | 0.973 |  | 6.24 | 25.9 | 4.07 | 3.96 | 3.37 | 4.48 | 4.18 | 4.71 | 3.69 |  | 3.99 | 5.16 | 4.62 | 3.36 | 3.61
9 | CSC1=C(C(=O)Nc2ccc(Cl)cc2)C(N)=NC1=O | > 100 | > 100 | > 100 | > 100 | > 100 | > 100 | > 100 | > 100 | > 100 | > 100 | > 100 | > 100 | > 100 | > 100 | > 100 | > 100 | > 100 | > 100 |  | > 100
10 | OC(c1nc2ccccc2s1)(C(F)(F)F)C(F)(F)F | > 100 | > 100 | > 100 | > 100 | > 100 | > 100 | > 100 | > 100 | > 100 | > 100 | > 100 | > 100 | > 100 | > 100 | > 100 | > 100 | > 100 | > 100 |  | > 100
11 | CC(=O)C1C(=O)C(=O)N(c2cccc(C)c2C)C1=O (stereo not drawn) | > 100 | > 100 | > 100 | > 100 | > 100 | > 100 | > 100 |  |  |  |  |  | > 100 | > 100 |  | > 100 | > 100 | > 100 | > 100 | 
12 | O=C1CCCCC/C1=C\c1ccc(F)cc1 | > 100 |  |  | > 100 |  |  | > 100 | > 100 | > 100 | > 100 | > 100 | > 100 | > 100 | > 100 | 59.8 | > 100 | > 100 | > 100 | > 100 | > 100
13 | O=C1/C(=C\c2ccc(Cl)cc2Cl)Sc2scc(-c3cccc([N+](=O)[O-])c3)[n+]21 | 17.8 | 41.9 | 15.5 | 29 |  | 29.1 | 3.47 | 27.8 | 22.9 | 57.8 | 29.7 | 4.32 | 10.9 | 12.3 |  | 26.7 | 31.5 | 30.3 | 18.3 | 38.1
14 | CCOC(=O)/C(=C\c1ccc(O)c(OC)c1)C(=O)c1ccccc1 | 28.7 |  |  | 61.4 | 52.4 | 18.3 | 21.7 |  | > 49 | 28.1 | > 60.2 | 21.9 | > 66.8 | 37.6 | 27.4 | 34.3 | 23.7 | 34.8 | 70.7 | > 40.3
15 | COc1c(C)c(C/C=C(\C)CCCCO[Si](C(C)C)(C(C)C)C(C)C)c(OC)c2ccccc12 | > 100 | > 100 | > 100 | > 100 |  | > 100 | > 100 | > 100 |  | > 100 | > 100 | > 100 | > 100 | > 100 | 89.3 | > 100 | > 100 | > 100 | > 100 | > 100
16 | Cc1ccc(S(=O)(=O)N2CC3OC(C)(C)OC3C2CO)cc1 (stereo not drawn) | > 100 | > 100 | > 100 | > 100 |  | > 100 |  | > 100 | > 100 | > 100 | > 100 | > 100 | > 100 | > 100 | > 100 | > 100 |  | > 100 | > 100 | > 100
17 | O=c1cc(-c2ccccc2)[nH]c2cc(F)c(F)cc12 | > 100 | > 19.6 | > 71.9 | 34.1 | 3.14 | > 100 | > 100 |  | > 100 | > 20.8 | > 100 | 10.8 | > 46.4 | 4.18 | > 100 | > 100 | 22.9 | > 75.1 | > 100 | > 100
18 | Cc1cc(C)nc(NS(=O)(=O)c2ccc(Nc3nncc(=O)n3N)cc2)n1 | 87.8 | 55.9 | 30.3 | > 100 | 40.2 | 29.2 | 27.7 | 33 | 41.6 | 39.7 | > 100 | 26.2 | 32.2 | 29.2 | 11.6 | > 100 | 28.6 | > 100 |  | 32.9
19 | COc1cc(C2c3cc4c(cc3OC(NC3CCCCC3)C2C)OCO4)cc(OC)c1OC (stereo not drawn) | 15.5 | 3.86 | > 100 | > 100 | 0.675 | 15.6 | 17.6 |  |  | 28.6 | > 100 | 2.28 | 25.6 | 20.1 | > 100 | 7.89 | 11 | 47.8 | 22.1 | > 28.3
20 | O=[N+]([O-])C(Cl)C(Cl)C(Cl)=C(Cl)Cl (stereo not drawn) | 38.3 | > 73.9 | > 54.9 | > 100 | 44.1 | > 75.2 | 28.8 | 56.7 | 32.9 | > 70.5 | > 100 | 38.4 | 36.4 | 22.3 | 58.6 | > 100 | 60.4 |  |  | 31.9
21 | COC(=O)[C@@H]1CN(C(=O)c2ccccc2)C(=O)N1 | > 100 | > 100 |  | > 100 | > 100 | > 100 | > 100 | > 100 | > 100 | > 100 | > 100 | > 100 | > 100 | > 100 | > 100 | > 100 | > 100 |  | > 100 | > 100
22 | CC1Cc2c(Br)nc(N)nc2NC1=O (stereo not drawn) | > 100 | > 100 | > 100 | > 100 |  | > 100 | > 100 | > 100 | > 100 | > 100 | > 100 | > 100 | > 100 | > 100 |  | > 100 | > 100 | > 100 |  | > 100
23 | CC1CN=C(Nc2ccc(F)cc2F)S1 (stereo not drawn) | > 100 | > 100 | > 100 | > 100 | > 100 | > 100 | > 100 |  | > 100 | > 100 | > 100 |  |  | > 100 | > 100 | > 100 | > 100 | > 100 | > 100 | > 100
24 | Cc1ccc(S(=O)(=O)N2CCN(S(=O)(=O)c3ccc(C)cc3)Cc3ccccc3C2)cc1 | > 100 | > 100 | > 100 | > 100 | > 100 | > 100 | > 100 | > 100 | > 100 | > 100 | > 100 | 95 | > 100 | > 100 | > 100 | > 100 | > 100 | > 100 |  | 90.8
25 | O=C(/C=C(\O)c1ccc(Cl)cc1)C(=O)N=Nc1c(O)[nH]c2ccc(Br)cc12 | > 100 | > 100 | > 100 | > 100 |  | > 100 | > 100 | > 100 | > 100 | > 100 | > 100 | > 100 | > 100 | > 100 |  | > 100 | > 100 | 41.2 | > 100 | > 100
26 | C=CCCCC1CCCNC1=O (stereo not drawn) | > 100 |  | > 100 | > 100 |  | > 100 |  | > 100 |  | > 100 | > 100 | > 100 | > 100 | > 100 |  | > 100 | > 100 | > 100 | > 100 | > 100
